Measured values published in ChEMBL document CHEMBL1143292, “A small molecule inhibitor selective for a variant ATP-binding site of the chaperonin GroEL” (Bioorg Med Chem Lett, 2009).
Calls of active or inactive are those of the source.

How the values were obtained:
[1] = tested on: Chaperonin GroEL (Escherichia coli (strain K12)), P0A6F5 [I493C]; experiment: Inhibition of Escherichia coli 60 kDa chaperonin groEL I493C mutant
Escherichia coli [2] = experiment: Inhibition of Escherichia coli 60 kDa chaperonin groEL ATPase activity assessed as inorganic phosphate release at 50 uM by Malachite green complex formation assay
[3] = tested on: Chaperonin GroEL (Escherichia coli (strain K12)), P0A6F5 [I493C]; experiment: Inhibition of Escherichia coli 60 kDa chaperonin groEL I493C mutant ATPase activity assessed as inorganic phosphate release at 50 uM by Malachite green complex formation assay
[4] = tested on: Chaperonin GroEL (Escherichia coli (strain K12)), P0A6F5 [I493C]; experiment: (§1) Inhibition of Escherichia coli 60 kDa chaperonin groEL refolding activity assessed as recovered enzyme activity of bovine rhodanese at 50 uM
Escherichia coli [5] = experiment: as §1
[6] = tested on: Chaperonin GroEL (Escherichia coli (strain K12)), P0A6F5 [I493C]; experiment: (§2) Inhibition of Escherichia coli 60 kDa chaperonin groEL refolding activity assessed as recovered enzyme activity of pig heart malate dehydrogenase at 50 uM
Escherichia coli [7] = experiment: as §2

Measured: Activity

Chain of Chaperonin GroEL (Escherichia coli (strain K12)), P0A6F5 [I493C] (P0A6F5 whole entry I493C): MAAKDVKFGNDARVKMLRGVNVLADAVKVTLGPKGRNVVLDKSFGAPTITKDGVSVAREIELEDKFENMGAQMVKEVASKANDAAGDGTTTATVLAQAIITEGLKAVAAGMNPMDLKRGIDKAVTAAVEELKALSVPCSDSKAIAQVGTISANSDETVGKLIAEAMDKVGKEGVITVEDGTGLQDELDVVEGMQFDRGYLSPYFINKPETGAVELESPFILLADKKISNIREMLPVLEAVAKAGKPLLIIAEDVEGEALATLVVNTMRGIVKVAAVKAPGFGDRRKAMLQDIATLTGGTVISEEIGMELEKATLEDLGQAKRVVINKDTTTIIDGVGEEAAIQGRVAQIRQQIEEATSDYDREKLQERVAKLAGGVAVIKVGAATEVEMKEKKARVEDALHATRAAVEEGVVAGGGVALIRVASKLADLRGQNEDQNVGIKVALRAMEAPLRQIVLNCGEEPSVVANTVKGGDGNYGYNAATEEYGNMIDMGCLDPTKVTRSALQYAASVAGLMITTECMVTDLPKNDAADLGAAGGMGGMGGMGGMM

CC(C)(C)n1nc(-c2ccc(NC(=O)C3CCCC3)cc2)c2c(N)ncnc21
active: [1] | Escherichia coli [2] | [3] | [4] | Escherichia coli [5] | [6] | Escherichia coli [7]
